Where a SMILES comes first, the peptide text is derived from it. [ ]: non-standard residue; d: D form. Dmt = Cc1cc(O)cc(C)c1C[C@H](N)C(=O)O
System: mitoplasts from WT and Δcrd1 yeast
Experiment: ANS-detected surface potential of mitoplasts
Set-up: species or system Saccharomyces cerevisiae
Excerpt: Figure 6. Interaction of SS-31 with isolated mitochondria. A, [ald]SS-31 binding with differing phospholipid composition. Left, percentages of total phospholipid of each species (phosphatidylcholine (PC), phosphatidylethanolamine (PE), cardiolipin (CL), monolyso-CL (MLCL), phosphatidylglycerol (PG), phosphatidic acid (PA), phosphatidylinositol (PI), phosphatidylserine (PS), and lysophosphatidylcholine (LPC)) in mitochondria from WT, Δtaz1, and Δcrd1 strains measured by shotgun lipidomics. Right, binding of 1 μM [ald]SS-31 with mitochondria isolated from WT, Δtaz1, and Δcrd1 yeast strains quantified as the mean fractional increase (F/F0) in aladan emission with increasing mitochondria concentration for fully energized mitochondria. Inset, relative binding of [ald]SS-31 to mitochondria (0.2 mg ml^−1) in the presence or absence of 1 μM valinomycin (val) as indicated. Values shown are means ± S.D. (error bars) (n = 3). B, comparison of [ald]SS-31 binding to mitochondria and model membranes. […]
The final goal of these experiments was to evaluate the effect of SS peptides on the surface electrostatic properties of mitochondrial membranes. […] We therefore compared the titration of mitoplasts with SS-31 and mono- and divalent cations (K^+ and Ca^2+, respectively) to evaluate the relative effects of each species on ANS-detected ψs (Fig. 6C). […]

For Cc1cc(O)cc(C)c1C[C@H](NC(=O)[C@H](N)CCCNC(=N)N)C(=O)N[C@@H](CCCCN)C(=O)N[C@@H](Cc1ccccc1)C(N)=O [SS-31, D-Arg-2′6′-dimethyl-Tyr-Lys-Phe-NH2] (H-[dR][Dmt]KF-NH2), the “effect of peptide addition prior to CaCl2 titration on Ca2+-mediated decrease in ψs” value (WT mitoplasts, 20 μM SS-31 added before CaCl2) was “strongly blunted the effects of Ca^2+ on surface potential” and the “effect on ANS fluorescence (ψs) of mitoplasts” value (titration of WT and Δcrd1 mitoplasts, n = 3) was “increase in ANS fluorescence”.

Source: article PMC7247319, “The mitochondria-targeted peptide SS-31 binds lipid bilayers and modulates surface electrostatics as a key component of its mechanism of action” (The Journal of Biological Chemistry, 2020)
